Experiments:
[1] = tested on: NO generated from nitric oxide synthase (NOS); assay: Inhibitory activity against NO generated from NOS (EnzyChrom kit); format: biochemical; conditions: mean ± SD, 1-50 µM
Description: A nitric oxide synthase (NOS) assay was performed following the procedure recommended by the manufacturer as outlined in the screening kit (Catalogue No. EINO-100; EnzyChrom). Various concentrations (1, 5, 10, 25 and 50 µM) of the compounds 3a, 3c, 3f, 3i, 3l, 3n and 3p and the reference standard, ascorbic acid, were prepared. The enzyme solution (12.5 U/mL NOS, 10 µL), assay buffer (25 µL) and test samples (5 µL) were incubated at room temperature for 15 min. After pre-incubation, 10 µL of reaction mix was added and incubated at 37 °C for 60 min. A 200 µL quantity of NO detection reagent was added, the detection reaction was run at 37 °C for 60 min, and absorbance was determined at a wavelength of 540 nm using an Elisa plate reader (Varioskan Flash, ThermoFisher Scientific, Vantaa, Finland). The average of three readings was used to calculate the NOS percentage inhibition using the following formula: % Inhibition=1−ΔOD Test Compd/ΔOD No Inhibitor ×100%
The IC50 values and standard deviation values were determined from nonlinear regression dose–response curve and compared with the results in GraphPad prism.

[2] = NO free radical scavenging assay (sodium nitroprusside/Griess); conditions: mean ± SD; sodium nitroprusside, Griess reagent, 550 nm
Outline: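 Test compound incubated with 10 mM sodium nitroprusside (stock) in phosphate buffer for 2.5 h at 25 °C, then Griess reagent added for 30 min. Triplicate absorbance means used for IC50 by nonlinear dose–response regression.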

[3] = DPPH radical scavenging assay; conditions: mean ± SD; 45 min in the dark; 512 nm
Outline: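 Compounds (0–50 µM, in DMSO) were mixed with 0.20 mM DPPH in methanol and kept in the dark for 45 min, with absorbance read at 512 nm. IC50 values were obtained by nonlinear regression of triplicate averaged readings.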

CC1=[N+]([O-])C(c2ccccc2)Nc2c(I)cc(Br)cc21 (stereo not shown) [Compound 3i]
melting point: 162 to 164 °C
IC50 [1]: 29.08 ± 0.004 µM
IC50 [2]: 61.26 ± 0.005 µM
IC50 [3]: 1.04 ± 0.077 µM

From publication PMC10669220, “In Vitro α-Glucosidase and α-Amylase Inhibition, Cytotoxicity and Free Radical Scavenging Profiling of the 6-Halogeno and Mixed 6,8-Dihalogenated 2-Aryl-4-methyl-1,2-dihydroquinazoline 3-Oxides” (Antioxidants, 2023)
